Reference: US6759538B2, “Substituted diphenyl heterocycles useful for treating HCV infection” (priority 2001, dated 2004)

How the values were obtained:
HCV replicon = HCV replicon assay (luciferase); type: cell-based, Hepatitis C virus (HCV); conditions: 5-2 Luc replicon cells, 24 hours with compound, luciferase emission; first symbol of Replicon/Western
From the text: In one embodiment, the inhibitory activity of the compounds can be confirmed in a replicon assay that assesses the ability of a test compound to block or inhibit HCV replication in replicon cells. One example of a suitable replicon assay is the liver cell-line Huh 7-based replicon assay described in Lohmann et al., 1999, Science 285:110-113. A specific example of this replicon assay which utilizes luciferase translation is provided in the Examples Section. In one embodiment of this assay, the amount of test compound that yields a 50% reduction in translation as compared to a control cell (IC50) may be determined.
The inhibitory activity of certain exemplary compounds of the invention was confirmed using an HCV replicon assay. The HCV replicon can include such features as the HCV 5′ untranslated region including the HCV IRES, the HCV 3′ untranslated region, selected HCV genes encoding HCV polypeptides, selectable markers, and a reporter gene such as luciferase, GFP, etc. In the assay, actively dividing 5-2 Luc replicon-comprising cells (obtained from Rolf Bartenschlager; see Lohmann et al., 1999, Science 285:110-113) were seeded at a density of between about 5,000 and 7,500 cells/well onto 96 well plates (about 90 μl of cells per well) and incubated at 37° C. and 5% CO2 for 24 hours. Then, the test compound (in a volume of about 10 μl) was added to the wells at various concentrations and the cells were incubated for an additional 24 hours before luciferase assay. The media was aspirated from each well and Bright-Glo (Promega, Madison, Wis.) luciferase assay reagents were added to each well according to the manufacturer's instructions. Briefly, the Bright-Glo reagent was diluted 1:1 with PBS and 100 μl of diluted reagent was added to each well. After 5 min of incubation at room temperature, luciferin emission was quantified with a luminometer. In this assay, the amount of test compound that yielded a 50% reduction in luciferase emission (IC50) was determined.

[1] = test system: HCV nonstructural protein NS5A; assay: Quantitative Western blot assay; type: cell-based, Hepatitis C virus (HCV); conditions: 9-13 replicon cells, 48 hours with compound, second symbol of Replicon/Western
Procedure: Alternatively, the inhibitory activity of the compounds can be confirmed using a quantitative Western immunoblot assay utilizing antibodies specific for HCV non-structural proteins, such as NS3, NS4A NS5A and NS5B. In one embodiment of this assay, replicon cells are treated with varying concentrations of test compound to determine the concentration of test compound that yields a 50% reduction in the amount of a non-structural protein produced as compared to a control sample (IC50). A single non-structural protein may be quantified or multiple non-structural proteins may be quantified. Antibodies suitable for carrying out such immunoblot assays are available commercially (e.g., from BIODESIGN International, Saco, Me.).
Certain exemplary compounds of the invention were also tested for their ability to inhibit HCV replication using a quantitative Western blot analysis with antibodies specific for the HCV nonstructural protein NS5A. Actively dividing 9-13 replicon cells were seeded into 6-well plates at a density of 1×10^5 cells/well in a volume of 2 ml/well and incubated at 37° C. and 5% CO2 for 24 hours. Various concentrations of test compounds (in a volume of 10 ul) were added to the wells and the cells incubated for another 48 hours. Protein samples were prepared from the cultured cells, resolved on a SDS-PAGE gel and transferred to a nitrocellulose membrane. The membrane was blocked with 5% non-fat milk in PBS for 1 hour at room temperature. Primary antibody (anti NS5A antibody; BIODESIGN International, Saco, Me.) incubation was performed for 1 hour at room temperature, after which the membrane was washed 3 times (for 15 min per time) with PBST (PBS plus 0.1% Tween 20). Horseradish peroxidase conjugated secondary antibody incubation was performed for 1 hour at room temperature and the membrane was washed 3 times (for 15 min per time) with PBST. The membrane was then soaked in substrate solution (Pierce) and exposed to a film or quantified using an imager. In this assay, the amount of test compound that yielded a 50% reduction in the amount of NS5A protein translated as compared to a control sample (IC50) was determined.

[2] = Safety studies in rats, subcutaneous and intravenous administration
Procedure: The safety of compound 9 was evaluated in rats by both subcutaneous and intravenous administration in several experiments. […] The experiments performed are summarized below.
In a second study compound 9 was administered by the IV route at doses of 10 and 30 mg/kg in 100% PEG. The volume administered for the 10 mg/kg dose was 0.67 ml/kg/day and volume given the 30 mg/kg group was 2 ml/kg/day. In addition, there were two control groups. One control received 100% PEG alone at a volume of 2 ml/kg/day while the other was an untreated sham control group. […] Parameters of study included: clinical observations, body weights, hematology, clinical chemistry, gross necropsy, organ weights, bone marrow assessment and histopathology of selected organs.
A vehicle control group received the 100% PEG alone at the same volume. Groups comprised 3 males and 3 females each. Before reducing the dose to 10 and 30 mg/kg two rats received 100 mg/kg IV at a volume of 1 ml/kg. […] Parameters of study included: clinical observations, body weights, hematology, clinical chemistry, gross necropsy, organ weights and histopathology of selected organs (including injection sites).

HCV virus = assay: HCV infection assay; type: cell-based, Hepatitis C virus (HCV); conditions: hepatocyte cells from a donor, inoculated Day 3, RNA Day 8; read-out: IC50 HCV infection assay (HCV RNA, Taqman)
From the text: Alternatively, the inhibitory activity of the compounds may be confirmed in an HCV infection assay, such as the HCV infection assay described in Fournier et al., 1998, J. Gen. Virol. 79(10):2367:2374, the disclosure of which is incorporated herein by reference. In one embodiment of this assay, the amount of test compound that yields a 50% reduction in HCV replication or proliferation as compared to a control cell (IC50) may be determined. The extent of HCV replication may be determined by quantifying the amount of HCV RNA present in HCV infected cells. A specific method for carrying out such an assay is provided in the Examples section.
The activity of Compound 9 was also confirmed in an HCV infection assay. The assay was carried out essentially as described in Fournier et al., 1998, J. Gen. Virol. 79:2367-2374. Briefly, hepatocyte cells from a doner were plated on Day 1. On Day 3, the cells were inoculated with HCV virus and test compound was added. On Day 5, the medium was changed and test compound was added. On Day 7, the medium was changed and test compound was added. On Day 8, the RNA was isolated and the HCV RNA quantified using a Taqman assay.

[3] = Pharmacokinetics, plasma levels with liposome suspension vehicles; type: in vivo, rats, monkeys and chimpanzees; conditions: subcutaneous, liposome suspension vehicles: 5 mg/ml in water with 100 or 200 mg/ml lecithin, or 100 mg/ml lecithin and 5 mg/ml cholesterol
Procedure: The pharmacokinetic properties of compound 9 were calculated in rats, monkeys and chimpanzees using the intravenous and subcutaneous routes of administration with a variety of different delivery vehicles.

[4] = Toxicokinetic determinations in rats; conditions: rat
[5] = test system: 5-2 Luc cells, 9-13 cells or Huh-7 cells; assay: Cytotoxicity assay (Cell Titer Glo); conditions: read-out: IC50 cytotoxicity (number of viable cells), liver cells including an HCV replicon, 24 hr
Procedure: In the assay, cells were seeded onto 96-well plates (approx. 7500 cells/well in a volume of 90 μl) and grown for 24 hr at 37° C. On day 2, various concentrations of test compound (in a volume of 10 μl) were added to the wells and the cells were grown for an additional 24 hr at 37° C. On day 3, an ATP-dependent R-Luciferase assay (Cell Titer Glo assay) was performed to determine the number of viable cells.

Compound | IC50 (HCV replicon) [µM] | IC50 [1] [µM] | other results
O=C(Nc1cccc(-c2cc(-c3c(F)cccc3Cl)no2)c1)C(Cl)Cl [Compound 27, 2,2-Dichloro-N-[3-[3-(2-chloro-6-fluorophenyl)-5-isoxazolyl]phenyl] Acetamide] | ≤ 10 | ≤ 10 | –
Cc1cccc(-c2cc(-c3cccc(NC(=O)C(Cl)Cl)c3)on2)c1C [Compound 163, 2,2-Dichloro-N-[3-[3-(2,3-dimethylphenyl)-5-isoxazolyl]phenyl] Acetamide] | > 10 | > 10 | –
O=C(Nc1ccc(F)c(-c2cc(-c3c(Cl)cccc3Cl)no2)c1)C(Cl)Cl [Compound 13, 2,2-Dichloro-N-[3-[3-(2,6-dichlorophenyl)-5-isoxazolyl]-4-fluorophenyl] Acetamide] | ≤ 10 | ≤ 10 | –
O=C(Nc1cccc(-c2cc(-c3c(Cl)cc(OCCN4CCOCC4)cc3Cl)no2)c1)C(Cl)Cl [Compound 75, 2,2-Dichloro-N-[3-[3-[2,6-dichloro-4-(N-morpholinoethyleneoxy)phenyl]-5-isoxazolyl]-phenyl] Acetamide] | > 10 | ≤ 10 | –
O=C(CI)Nc1cccc(-c2cc(-c3c(Cl)cccc3Cl)no2)c1 [Compound 101, 2-Iodo-N-[3-[3-(2,6-dichlorophenyl)-5-isoxazolyl]phenyl] Acetamide] | ≤ 10 | > 10 | –
O=C(Nc1cccc(-c2cc(-c3cccc(Cl)c3Cl)no2)c1)C(Cl)Cl [Compound 3, 2,2-Dichloro-N-[3-[3-(2,3-dichlorophenyl)-5-isoxazolyl]phenyl] Acetamide] | > 10 | ≤ 10 | –
2,2-Dichloro-N-[3-[3-[2-fluoro-(6-N-morpholinosulfamoyl)phenyl]-5-isoxazolyl]-phenyl] Acetamide [Compound 21] | ≤ 10 | ≤ 10 | –
O=C(Nc1cccc(-c2cc(-c3c(Cl)cccc3N3CCOCC3)no2)c1)C(Cl)Cl [Compound 7, 2,2-Dichloro-N-[3-[3-[2-chloro-6-(N-morpholino)phenyl]-5-isoxazolyl]phenyl] Acetamide] | ≤ 10 | ≤ 10 | –
O=C(Nc1cccc(-c2cc(-c3c(Cl)cccc3Cl)no2)c1)C(Cl)Cl [Compound 9, 2,2-Dichloro-N-[3-[3-(2,6-dichlorophenyl)-5-isoxazolyl]phenyl] Acetamide] | ≤ 10 | ≤ 10 | other findings, second study ([2]; IV 10 and 30 mg/kg, 7 days): no untoward findings; well tolerated dose, first study ([2]; Sprague Dawley rats, SC and IV, dose escalation): ≤ 30 mg/kg; clinical signs at IV 60 mg/kg ([2]; first study, Day 5, IV 60 mg/kg in 100% PEG): immediate clinical signs (collapsing, thrashing, dyspnea and reddish discolored urine) were observed; time for symptoms to abate ([2]; first study, IV 60 mg/kg): ≤ 1 h; NOAEL (no observed adverse effect level) ([2]; rat, IV, 7 days): 30 mg/kg; NOAEL ([2]; rat, intravenous, 14-days): 30 mg/kg; well tolerated dose ([2]; rats, subcutaneous and intravenous): ≤ 30 mg/kg/day; hematology finding at 30 mg/kg ([2]; second study, IV, 100% PEG, 7 days, relative to untreated control but not vehicle control): very slight decreases in red blood cells, hemoglobin and hematocrit; necropsy findings ([2]; third study, IV 10 and 30 mg/kg): no gross or microscopic morphological changes; clinical observations, body weights, hematology, clinical chemistry, organ weights ([2]; third study, IV 10 and 30 mg/kg, versus vehicle control): unaffected by treatment; mortality at 100 mg/kg IV ([2]; third study, two rats, 100 mg/kg IV, 1 ml/kg): Both animals died within a minute or two of dosing; IC50 (HCV virus): < 10 µM; plasma levels [3]: Sustained plasma levels were achieved; T1/2 ([4]; IV): about 5 minutes; exposure, IV route ([4]; IV): high exposure; persistence of measurable compound ([4]; IV): still apparent after 2 hours; Tmax ([4]; SC): about 30 minutes; exposure, subcutaneous route ([4]; SC): much lower exposure; persistence of exposure ([4]; SC): remains sustained through 2 hours post-dosing
COC(=O)c1ccc(Cl)c(-c2cc(-c3cccc(NC(=O)C(Cl)Cl)c3)on2)c1Cl [Compound 135, 2,2-Dichloro-N-[3-[3-(3-carbomethoxy-2,6-dichlorophenyl)-5-isoxazolyl]phenyl] Acetamide] | > 10 | > 10 | –
Cc1cc(C)c(-c2cc(-c3cccc(NC(=O)C(Cl)Cl)c3)on2)c(C)c1 [Compound 69, 2,2-Dichloro-N-[3-[3-(2,4,6-trimethylphenyl)-5-isoxazolyl]phenyl] Acetamide] | ≤ 10 | – | IC50 [5]: 3 µM
O=C(Nc1cc(-c2cc(-c3c(Cl)cccc3Cl)no2)ccc1F)C(Cl)Cl [Compound 1, 2,2-Dichloro-N-[3-[3-(2,6-dichlorophenyl)-5-isoxazolyl]-6-fluorophenyl] Acetamide] | ≤ 10 | ≤ 10 | –
2,2-Dichloro-N-[3-[3-[2-(N-morpholino)-6-trifluoromethylphenyl)-5-isoxazolyl]phenyl] Acetamide [Compound 37] | ≤ 10 | ≤ 10 | –
